Test results as given in patent US20260364080A1, “PYRAZOLO-PYRIMIDINONE COMPOUNDS FOR USE IN METHODS OF INHIBITING WEE1 A KINASE” (Acrivon Therapeutics, Inc., priority 2023, published 2026).

Legend:
[1] = biological target: T1, recombinant human Wee1A kinase (Homo sapiens, UniProt P30291); assay: Wee1A kinase binding assay (LanthaScreen Eu time-resolved FRET); conditions: 30 nM tracer 178, 5 nM Wee1A kinase, 2 nM Eu-labeled antibody; 60 minutes at room temperature; read-out: Wee1A kinase Binding IC50
T1 construct: full length Wee1 kinase was expressed by baculovirus in insect cells; purchased Invitrogen PV3817; host or cells: insect cells (baculovirus)
T1 sequence (P30291 whole entry): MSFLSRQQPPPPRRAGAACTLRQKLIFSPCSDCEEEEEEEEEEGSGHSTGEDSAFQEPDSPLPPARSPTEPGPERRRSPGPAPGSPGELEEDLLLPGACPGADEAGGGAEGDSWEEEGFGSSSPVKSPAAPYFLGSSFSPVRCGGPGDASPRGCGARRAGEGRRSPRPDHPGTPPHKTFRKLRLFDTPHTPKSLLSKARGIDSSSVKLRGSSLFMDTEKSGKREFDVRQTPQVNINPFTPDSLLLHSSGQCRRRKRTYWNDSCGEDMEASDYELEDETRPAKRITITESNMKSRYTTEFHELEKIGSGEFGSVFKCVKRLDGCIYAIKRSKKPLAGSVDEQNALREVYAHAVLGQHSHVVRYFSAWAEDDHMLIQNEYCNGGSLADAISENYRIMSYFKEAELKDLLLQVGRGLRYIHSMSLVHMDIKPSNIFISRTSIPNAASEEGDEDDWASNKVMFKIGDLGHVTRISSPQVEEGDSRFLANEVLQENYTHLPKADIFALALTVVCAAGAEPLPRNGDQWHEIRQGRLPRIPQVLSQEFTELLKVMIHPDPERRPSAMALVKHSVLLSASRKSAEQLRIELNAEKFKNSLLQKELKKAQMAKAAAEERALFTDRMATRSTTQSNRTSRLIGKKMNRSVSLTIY
Method in brief: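 Full-length, baculovirus-expressed GST-tagged Wee1A (5 nM) was mixed with 2 nM Eu-anti-GST antibody, 30 nM kinase tracer 178 and compound (1% DMSO). Buffer was 50 mM HEPES pH 7.5, 10 mM MgCl2, 1 mM EGTA, 0.01% Brij-35, incubated 60 min at room temperature. TR-FRET 665/615 nm emission ratios from duplicates were curve-fitted.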

[2] = biological target: T2, Myt1 kinase (recombinant PMYT-1) (Homo sapiens, UniProt Q99640); assay: Myt1 kinase binding assay (LanthaScreen Eu Kinase Binding Assay); conditions: 3 nM tracer 178, 2.5 nM PMYT-1, 1 nM Eu-labeled antibody; read-out: Myt1 kinase Binding IC50
T2 construct: full length PMYT-1 was expressed by baculovirus in insect cells; purchased Invitrogen A30984; host or cells: insect cells (baculovirus)
T2 sequence (Q99640 1-499): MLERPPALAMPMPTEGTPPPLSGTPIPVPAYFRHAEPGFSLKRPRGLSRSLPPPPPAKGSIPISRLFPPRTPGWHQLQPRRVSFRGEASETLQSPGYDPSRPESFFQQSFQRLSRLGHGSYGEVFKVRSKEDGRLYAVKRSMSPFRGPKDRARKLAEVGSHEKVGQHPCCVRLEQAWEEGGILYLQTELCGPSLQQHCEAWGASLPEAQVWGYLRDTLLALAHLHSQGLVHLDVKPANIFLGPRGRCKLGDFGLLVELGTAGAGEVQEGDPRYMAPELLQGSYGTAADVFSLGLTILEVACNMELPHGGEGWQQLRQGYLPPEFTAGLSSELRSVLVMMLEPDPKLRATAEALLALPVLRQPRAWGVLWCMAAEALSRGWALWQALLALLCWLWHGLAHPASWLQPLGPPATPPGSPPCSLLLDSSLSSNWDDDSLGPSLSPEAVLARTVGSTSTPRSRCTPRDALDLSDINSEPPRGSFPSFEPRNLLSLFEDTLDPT
Method in brief: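 The binding affinity of compounds for Myt1 kinase was measured with a LanthaScreen Europium (Eu) Kinase Binding Assay, a time-resolved FRET format in which test compounds compete against a labeled kinase tracer, and the results were expressed as IC50 values describing compound binding to Myt1.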

[3] = biological target: T3, Wee1A kinase (CDK1 Tyr15 phosphorylation in ACHN renal cell carcinoma cells) (Homo sapiens, UniProt P30291); assay: High-content imaging of pCdk1 Y15, Wee1A kinase target engagement in ACHN cells; format: cell-based; conditions: 4 h treatment, nuclear positivity for pCdk1 Y15 vs DMSO control, read-out: CDK1 Tyr15 Phosphorylation EC50
T3 construct: pCDK1 Tyr15 immunofluorescence read-out
T3 sequence (P30291 whole entry): as the sequence (P30291 whole entry) above
Method in brief: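 ACHN cells exposed to compound for 4 h over 7–5,000 nM or 0.3–200 nM, then fixed and immunostained for pCDK1 Y15 with DAPI nuclear counterstain. The percentage of pCdk1 Y15 nucleus-positive cells relative to DMSO control was imaged per well; EC50 from dose-response curves.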

[4] = tested on: ACHN cells; assay: Cell Titer Glo viability assay, ACHN cells; format: cell-based; conditions: Homo sapiens, 144 h, absolute EC50
Method in brief: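 Cells grown in MEM with 10% FCS were seeded at 500 (A427), 400 (ACHN) or 250 (DAOY) per well and treated the next day with compound at 17 to 10 000 nM. Viability relative to untreated control was read at 144 h by CellTiter-Glo 2.0.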

[5] = tested on: A427 cells; assay: Cell Titer Glo viability assay, A427 cells; format: cell-based; conditions: Homo sapiens, A-427, 144 h, absolute EC50
Method: (§1) Each of an ACHN renal cell carcinoma cell line (ATCC) and a DAOY medulloblastoma cell line, and an A427 lung cancer line were cultured in Minimum Essential Medium Eagle supplemented with 10% fetal calf serum (Sigma), 1% Penicillin-Streptomycin and 10 mM HEPES buffer (HyClone). Cell cultures were kept in a humidified incubator at 37 °C and 5% CO2. Cells were routinely tested for Mycoplasma contamination.
(§2) ACHN cells, DAOY cells, or A427 cells were seeded at a density of 400, 250, or 500 cells per well respectively, in tissue culture treated 384 well plates (Corning Costar). After overnight incubation, cells were treated with drugs at concentrations ranging from 17 to 10 000 nM. Viability compared to untreated control was assessed at 144 h using Cell Titer Glo assay 2.0 (Promega). […] “NT” means the compounds was not tested in the indicated cells.

[6] = biological target: T4, Myt1 kinase (CDK1 Thr14 phosphorylation in ACHN renal cell carcinoma cells) (Homo sapiens, UniProt Q99640); assay: AlphaLISA assay, Myt1 kinase target engagement (phospho-CDK1 Thr14) in ACHN cells; format: cell-based; conditions: ACHN cells (marked *); 4 h treatment
T4 construct: pCDK1 Thr14 AlphaLISA read-out
T4 sequence (Q99640 1-499): T2 sequence (Q99640 1-499)
Method in brief: (§3)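 Cells seeded at 10,000 (DAOY) or 20,000 (ACHN) per well, treated 24 h later for 4 h with compound at 7–5000 nM. Lysates analysed by AlphaLISA SureFire Ultra phospho-CDK1 (Thr14) with donor/acceptor beads; EC50 from dose-response curves.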

[7] = tested on: DAOY cells; assay: Cell Titer Glo viability assay, DAOY cells; format: cell-based; conditions: Homo sapiens, 144 h, absolute EC50
Method: as §1, §2

[8] = biological target: T5, Myt1 kinase (CDK1 Thr14 phosphorylation in DAOY medulloblastoma cells) (Homo sapiens, UniProt Q99640); assay: AlphaLISA assay, Myt1 kinase target engagement (phospho-CDK1 Thr14) in DAOY cells; format: cell-based; conditions: 4 h treatment, read-out: CDK1 Thr14 Phosphorylation EC50
T5 construct: pCDK1 Thr14 AlphaLISA read-out
T5 sequence (Q99640 1-499): T2 sequence (Q99640 1-499)
Method in brief: as §3

Compound | IC50 [1] [nM] | IC50 [2] [nM] | EC50 [3] [nM] | EC50 [4] [nM] | EC50 [5] [nM] | EC50 [6] [nM] | EC50 [7] [nM] | EC50 [8] [nM]
C=CCn1c(=O)c2cnc(Nc3cnn(C)c3)nc2n1-c1cccc(OC2CCN(C)CC2)n1 [Compound 137, 2-allyl-1-[6-(1-methyl-4-piperidyloxy)-2-pyridyl]-6-(1-methyl-4-pyrazolylamino)-1,2-dihydro-3H-1,2,5,7-tetraazainden-3-one] | < 10 | 20 to 100 | < 100 | ≤ 100 | ≤ 100 | – | – | –
C=CCn1c(=O)c2cnc(Nc3ccc4c(ccn4C)c3)nc2n1-c1cccc(OC2CCN(C)CC2)n1 [Compound 186, 2-allyl-6-((1-methyl-1H-indol-5-yl)amino)-1-(6-((1-methylpiperidin-4-yl)oxy)pyridin-2-yl)-1,2-dihydro-3H-pyrazolo[3,4-d]pyrimidin-3-one] | < 10 | 20 to 100 | < 100 | ≤ 100 | – | 200 to 500 | ≤ 100 | –
C=CCn1c(=O)c2cnc(Nc3ccc(F)cc3)nc2n1-c1cccc(OC2CCN(C)CC2)n1 [Compound 207, 6-[(4-fluorophenyl)amino]-1-{6-[(1-methylpiperidin-4-yl)oxy]pyridin-2-yl}-2-(prop-2-en-1-yl)-1H,2H,3H-pyrazolo[3,4-d]pyrimidin-3-one] | < 10 | 20 to 100 | < 100 | ≤ 100 | – | – | ≤ 100 | 500 to 1000
C=CCn1c(=O)c2cnc(Nc3ccc4scnc4c3)nc2n1-c1cccc(OC2CCN(C)CC2)n1 [Compound 209, 2-allyl-6-(benzo[d]thiazol-5-ylamino)-1-(6-((1-methylpiperidin-4-yl)oxy)pyridin-2-yl)-1,2-dihydro-3H-pyrazolo[3,4-d]pyrimidin-3-one] | < 10 | < 20 | < 100 | ≤ 100 | – | – | ≤ 100 | < 200
C=CCn1c(=O)c2cnc(Nc3ccc4oc(C)nc4c3)nc2n1-c1cccc(OC2CCN(C)CC2)n1 [Compound 231, 2-allyl-6-(2-methyl-1,3-benzoxazol-5-ylamino)-1-[6-(1-methyl-4-piperidyloxy)-2-pyridyl]-1,2-dihydro-3H-1,2,5,7-tetraazainden-3-one] | < 10 | < 20 | < 100 | ≤ 100 | – | – | ≤ 100 | 200 to 500
C=CCn1c(=O)c2cnc(Nc3ccc4c(ccn4C)c3)nc2n1-c1cccc(OC2CCNCC2)n1 [Compound 236, 2-allyl-6-((1-methyl-1H-indol-5-yl)amino)-1-(6-(piperidin-4-yloxy)pyridin-2-yl)-1,2-dihydro-3H-pyrazolo[3,4-d]pyrimidin-3-one] | < 10 | 20 to 100 | < 100 | ≤ 100 | – | – | ≤ 100 | 200 to 500
C=CCn1c(=O)c2cnc(Nc3ccc4c(cnn4C(C)C)c3)nc2n1-c1cccc(OC2CCN(C)CC2)n1 [Compound 248, 2-allyl-6-(1-isopropyl-1H-indazol-5-ylamino)-1-[6-(1-methyl-4-piperidyloxy)-2-pyridyl]-1,2-dihydro-3H-1,2,5,7-tetraazainden-3-one] | < 10 | < 20 | < 100 | ≤ 100 | – | – | ≤ 100 | < 200
C=CCn1c(=O)c2cnc(Nc3ccc4ncsc4c3)nc2n1-c1cccc(OC2CCN(C)CC2)n1 [Compound 303, 2-allyl-6-(1,3-benzothiazol-6-ylamino)-1-[6-(1-methyl-4-piperidyloxy)-2-pyridyl]-1,2-dihydro-3H-1,2,5,7-tetraazainden-3-one] | < 10 | < 20 | < 100 | ≤ 100 | – | – | 100 to 500 | 200 to 500
C=CCn1c(=O)c2cnc(Nc3ccc4c(c3)OCO4)nc2n1-c1cccc(OC2CCN(C)CC2)n1 [Compound 307, 2-allyl-6-(2H-1,3-benzodioxol-5-ylamino)-1-[6-(1-methyl-4-piperidyloxy)-2-pyridyl]-1,2-dihydro-3H-1,2,5,7-tetraazainden-3-one] | < 10 | 20 to 100 | < 100 | ≤ 100 | – | – | ≤ 100 | 200 to 500
C=CCn1c(=O)c2cnc(Nc3ccc4ccoc4c3)nc2n1-c1cccc(OC2CCN(C)CC2)n1 [Compound 308, 2-allyl-6-(1-benzofuran-6-ylamino)-1-[6-(1-methyl-4-piperidyloxy)-2-pyridyl]-1,2-dihydro-3H-1,2,5,7-tetraazainden-3-one] | < 10 | < 20 | < 100 | ≤ 100 | – | – | ≤ 100 | < 200
C=CCn1c(=O)c2cnc(Nc3ccc4occc4c3)nc2n1-c1cccc(OC2CCN(C)CC2)n1 [Compound 309, 2-allyl-6-(1-benzofuran-5-ylamino)-1-[6-(1-methyl-4-piperidyloxy)-2-pyridyl]-1,2-dihydro-3H-1,2,5,7-tetraazainden-3-one] | < 10 | < 20 | < 100 | ≤ 100 | – | – | ≤ 100 | < 200
C=CCn1c(=O)c2cnc(Nc3ccc4nc(C)oc4c3)nc2n1-c1cccc(OC2CCN(C)CC2)n1 [Compound 311, 2-allyl-6-(2-methyl-1,3-benzoxazol-6-ylamino)-1-[6-(1-methyl-4-piperidyloxy)-2-pyridyl]-1,2-dihydro-3H-1,2,5,7-tetraazainden-3-one] | < 10 | 20 to 100 | < 100 | ≤ 100 | – | – | ≤ 100 | < 200
C=CCn1c(=O)c2cnc(Nc3ccc4sncc4c3)nc2n1-c1cccc(OC2CCN(C)CC2)n1 [Compound 320, 2-allyl-6-(1,2-benzisothiazol-5-ylamino)-1-[6-(1-methyl-4-piperidyloxy)-2-pyridyl]-1,2-dihydro-3H-1,2,5,7-tetraazainden-3-one] | < 10 | < 20 | < 100 | ≤ 100 | – | – | ≤ 100 | 200 to 500
C=CCn1c(=O)c2cnc(Nc3ccc4cccnc4c3)nc2n1-c1cccc(OC2CCN(C)CC2)n1 [Compound 335, 2-allyl-1-[6-(1-methyl-4-piperidyloxy)-2-pyridyl]-6-(7-quinolylamino)-1,2-dihydro-3H-1,2,5,7-tetraazainden-3-one] | < 10 | < 20 | < 100 | ≤ 100 | – | – | ≤ 100 | 200 to 500
